# Results from patent US11261170B2, “Aromatic compound, pharmaceutical composition and use thereof” (Sichuan Kelun-Biotech Biopharmaceutical Co., Ltd., priority 2017, dated 2022).
# pEC50, pIC50: −log10 of the molar value. Marks after values point to notes of the source that are not given here.
# Legend:
# PPARγ = PPARγ (Homo sapiens (Human), UniProt P37231); assay: Activation of PPARγ in genetically engineered CHO-K1 cells (PathHunter); assay type: cell-based; conditions: PathHunter CHO-K1 PPARγ cell line, agonist format, 6 hours
# Source text: (§1) Test Example 3: Experiment of Compounds on Activation of PPAR α, δ and γ in Genetically Engineered CHO-K1 Cells
# (§2) Cell: PathHunter® CHO-K1 PPARα Protein Interaction Cell Line, PathHunter® CHO-K1 PPARδ Protein Interaction Cell Line and PathHunter® CHO-K1 PPARγ Protein Interaction Cell Line, provided by DiscoverX®.
# (§3) Assay kit: PathHunter® Detection Kit, provided by DiscoverX®.
# (§4) 1) Cell Handling: PathHunter NHR (nuclear hormone receptor, PPARα, δ, γ) cell lines were expanded from freezer stocks according to standard procedures. Cells were seeded in a total volume of 20 μL into white walled, 384-well microplates and incubated at 37° C., 5% CO2 for the appropriate time prior to testing. […]
# (§5) 3) Signal detection: Assay signal was generated through a single addition of 12.5 or 15 μL (50% v/v) of PathHunter Detection reagent cocktail, followed by one-hour-incubation at room temperature. Microplates were read following signal generation with a PerkinElmer Envision™ instrument for chemiluminescent signal detection.
# (§6) 4) Data analysis: Both compound activity and EC50S were analyzed using CBIS data analysis suite (ChemInnovation, CA). For agonist mode assays, percentage activity was calculated using the following formula: % Activity=100%×(mean RLU of test sample−mean RLU of vehicle control)/(mean MAX control ligand−mean RLU of vehicle control).
# PPARα [1] = molecular target: T1, PPARα (Homo sapiens (Human), UniProt Q07869); assay: Activation of PPARα in genetically engineered CHO-K1 cells (PathHunter); assay type: cell-based; conditions: PathHunter CHO-K1 PPARα cell line, agonist format, 6 hours
# Source text: as §1, §2, §3, §4, §5, §6
# Target sequence in this assay (Q07869 whole entry): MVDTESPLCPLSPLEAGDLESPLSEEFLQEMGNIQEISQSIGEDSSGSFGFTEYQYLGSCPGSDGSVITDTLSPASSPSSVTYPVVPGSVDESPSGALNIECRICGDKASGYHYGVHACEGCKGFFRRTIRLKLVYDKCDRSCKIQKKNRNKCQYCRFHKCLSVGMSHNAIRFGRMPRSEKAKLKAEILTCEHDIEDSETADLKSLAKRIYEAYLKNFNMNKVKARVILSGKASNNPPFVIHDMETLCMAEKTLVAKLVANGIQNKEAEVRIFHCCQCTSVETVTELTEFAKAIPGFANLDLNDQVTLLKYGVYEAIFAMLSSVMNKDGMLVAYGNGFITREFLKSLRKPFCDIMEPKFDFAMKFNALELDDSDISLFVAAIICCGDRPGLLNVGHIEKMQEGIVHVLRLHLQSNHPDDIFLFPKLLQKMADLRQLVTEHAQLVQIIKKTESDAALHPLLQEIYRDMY
# PPARδ [2] = molecular target: T2, PPARδ (Homo sapiens (Human), UniProt Q03181); assay: Activation of PPARδ in genetically engineered CHO-K1 cells (PathHunter); assay type: cell-based; conditions: PathHunter CHO-K1 PPARδ cell line, agonist format, 6 hours
# Source text: as §1, §2, §3, §4, §5, §6
# Target sequence in this assay (Q03181 whole entry): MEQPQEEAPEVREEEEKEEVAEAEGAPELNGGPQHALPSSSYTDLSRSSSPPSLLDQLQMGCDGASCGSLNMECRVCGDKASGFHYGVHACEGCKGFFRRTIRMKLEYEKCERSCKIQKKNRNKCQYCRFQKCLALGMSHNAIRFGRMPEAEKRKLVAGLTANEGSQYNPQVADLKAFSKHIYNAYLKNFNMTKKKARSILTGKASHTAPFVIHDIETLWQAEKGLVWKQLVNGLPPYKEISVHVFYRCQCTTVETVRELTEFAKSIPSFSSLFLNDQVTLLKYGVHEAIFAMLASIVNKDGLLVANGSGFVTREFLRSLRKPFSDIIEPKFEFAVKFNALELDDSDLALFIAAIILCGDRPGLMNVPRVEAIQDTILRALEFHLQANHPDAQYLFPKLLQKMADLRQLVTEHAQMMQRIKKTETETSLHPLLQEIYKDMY
# [3] = Cytotoxicity test on HEK293 cells (CellTiter Glo); assay type: cell-based; conditions: human, incubated for 3 days
# Method: (§7) Test Example 4: Cytotoxicity Test of Compound on HepG2 & Hek293 Cells
# (§8) Cells: human hepatocyte HepG2, purchased from ATCC; Human embryonic kidney cells HEK293: purchased from ATCC;
# (§9) Assay reagent: CellTiter Glo® Luminescent Cell Viability Assay, purchased from Promega.
# (§10) HepG2 and HEK293 cells were incubated in DMEM/F12 medium containing 10% of fetal bovine serum respectively. A proper amount of cells were plated into a 96-well plate, the plate was placed in an incubator overnight, and the culture medium was removed, and replaced with a complete culture medium containing the compound of the application, and incubated for 3 days. On day 4, an assay reagent CellTiter Glo was added to each well, and the relative luminous unit (RLU) of each well was determined by chemiluminescence. CC50 values of the compound of the application to HepG2 and HEK293 cells were calculated by GraphPad software, and the results were shown in Table 3.
# [4] = Cytotoxicity test on HepG2 cells (CellTiter Glo); assay type: cell-based; conditions: human, incubated for 3 days
# Method: as §7, §8, §9, §10
# [5] = test system: MCD model of non-alcoholic steatohepatitis; assay: In vivo efficacy study in the MCD model of non-alcoholic steatohepatitis; set-up: species or system C57 Mice; conditions: MCD diet mice
# Method: Test Example 6: In Vivo Efficacy Study of Compound in the MCD Model of Non-Alcoholic Steatohepatitis In this example, comparative test between compound GFT505 from WO2018133705A1 and compounds of the invention was conducted, so as to show the advantages of compounds of the invention. C57 Mice at 8-10 weeks of age (purchased from Vital River Laboratories) were body-weight matched and randomly divided into groups of normal, model, control and test. Mice in normal group were fed with standard chow for 9 weeks. Mice in model group, control group and test group were fed with MCD diet (Methionine-Choline Deficient Diet, Research Diets) for 9 weeks to induce NASH Model. During weeks 5-9 of the 9-week course of MCD diet, the control group and the test group were treated with GFT505 and TM4 of the invention, respectively, and the normal group and model group were treated with 0.5% MC. The dosage regimen was specified in table 5. [table] Animals were dissected after administration on day 35, livers were collected for H&E staining (hematoxylin-eosin staining) and sirius red staining. And then NAFLD activity score, including liver steatosis score, inflammation score and ballooning score, and liver fibrosis score were conducted.
# [6] = molecular target: hERG potassium ion channel (Homo sapiens (Human), UniProt Q12809); assay: Predictor hERG fluorescence polarization; assay type: binding
# Method: Test Example 5: In Vitro Safety Test
# The effect of the compound on hERG potassium ion channel was tested by Predictor™ hERG fluorescence polarization.
# PPARα [7] = molecular target: T1, PPARα; assay: Activation of transient transfected PPAR α in HEK293 cells (GAL4-hPPAR α luciferase assay); assay type: cell-based; conditions: HEK293 transfected with GAL4-hPPAR α, 24 h incubation
# Method: Test example 1: Experiment of the compounds on activation of transient transfected PPAR α in HEK293 cells
# Plasmid: pcDNA3.1(+)-GAL4-hPPAR α, customized by Nanjing Kebai Biotechnology Co., Ltd.
# (§11) Liposome: PGL4.35, customized by Nanjing Kebai Biotechnology Co., Ltd.
# (§12) Cell: human embryonic kidney cells HEK293, purchased from ATCC.
# (§13) Transfection reagent: Lipofectamine Reagent 3000 purchased from Invitrogen.
# (§14) Assay kit: Bright Glo™ Luciferase Assay System purchased from Promega.
# (§15) HEK293 cells were incubated in DMEM medium containing 10% of fetal bovine serum at 37° C. in the presence of 5% of CO2. 3×10^5/ml cells were plated in each well of the 6-well plate. When the cell convergence degree reached 50%-80%, 5 μg of liposome PGL4.35 and 5 μg of expression plasmid pcDNA3.1(+)-GAL4-hPPAR α were added to transfect the cells for 24 h and then the cells were collected. The transfected cells were plated in the 96-well plate and the compounds of the application in different concentrations were added, incubated for 24 h, and Bright Glo™ Luciferase Assay System reagent was added for luciferase assay.
# Target sequence in this assay (Q07869 whole entry, looked up): as the sequence (Q07869 whole entry) above
# PPARδ [8] = molecular target: T2, PPARδ; assay: Activation of transient transfected PPAR δ in HEK293 cells (GAL4-hPPAR δ luciferase assay); assay type: cell-based; conditions: HEK293 transfected with GAL4-hPPAR δ, 24 h incubation
# Method: Test Example 2: Experiment of the Compounds on Activation of Transient Transfected PPAR δ in HEK293 Cells
# Plasmid: pcDNA3.1(+)-GAL4-hPPAR δ, customized by Nanjing Kebai Biotechnology Co., Ltd.
# as §11, §12, §13, §14
# as §15, with “δ” for “α”, “Then, the” for “The”, “reagent” for “reagent was added”, “assay was added.” for “assay.”
# Target sequence in this assay (Q03181 whole entry, looked up): as the sequence (Q03181 whole entry) above
# [9] = 1 mg/kg intragastric once every day for 35 days
# [10] = 1 mg/kg, 35 days, result in words
# Sequence of PPARγ (P37231 whole entry): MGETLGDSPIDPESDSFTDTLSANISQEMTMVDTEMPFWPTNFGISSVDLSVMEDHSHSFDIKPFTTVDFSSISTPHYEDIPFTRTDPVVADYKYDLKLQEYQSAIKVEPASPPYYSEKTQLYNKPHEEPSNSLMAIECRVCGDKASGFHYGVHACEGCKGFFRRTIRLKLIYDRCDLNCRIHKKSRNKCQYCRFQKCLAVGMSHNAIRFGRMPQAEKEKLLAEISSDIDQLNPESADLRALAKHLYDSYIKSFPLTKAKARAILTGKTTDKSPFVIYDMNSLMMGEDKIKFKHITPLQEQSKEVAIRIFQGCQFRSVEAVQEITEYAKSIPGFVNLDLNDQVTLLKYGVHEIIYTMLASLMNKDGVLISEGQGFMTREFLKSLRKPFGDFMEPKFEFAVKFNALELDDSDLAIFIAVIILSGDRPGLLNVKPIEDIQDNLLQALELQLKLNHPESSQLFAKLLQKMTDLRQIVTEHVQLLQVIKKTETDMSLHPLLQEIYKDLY
# Sequence of hERG potassium ion channel (Q12809 whole entry): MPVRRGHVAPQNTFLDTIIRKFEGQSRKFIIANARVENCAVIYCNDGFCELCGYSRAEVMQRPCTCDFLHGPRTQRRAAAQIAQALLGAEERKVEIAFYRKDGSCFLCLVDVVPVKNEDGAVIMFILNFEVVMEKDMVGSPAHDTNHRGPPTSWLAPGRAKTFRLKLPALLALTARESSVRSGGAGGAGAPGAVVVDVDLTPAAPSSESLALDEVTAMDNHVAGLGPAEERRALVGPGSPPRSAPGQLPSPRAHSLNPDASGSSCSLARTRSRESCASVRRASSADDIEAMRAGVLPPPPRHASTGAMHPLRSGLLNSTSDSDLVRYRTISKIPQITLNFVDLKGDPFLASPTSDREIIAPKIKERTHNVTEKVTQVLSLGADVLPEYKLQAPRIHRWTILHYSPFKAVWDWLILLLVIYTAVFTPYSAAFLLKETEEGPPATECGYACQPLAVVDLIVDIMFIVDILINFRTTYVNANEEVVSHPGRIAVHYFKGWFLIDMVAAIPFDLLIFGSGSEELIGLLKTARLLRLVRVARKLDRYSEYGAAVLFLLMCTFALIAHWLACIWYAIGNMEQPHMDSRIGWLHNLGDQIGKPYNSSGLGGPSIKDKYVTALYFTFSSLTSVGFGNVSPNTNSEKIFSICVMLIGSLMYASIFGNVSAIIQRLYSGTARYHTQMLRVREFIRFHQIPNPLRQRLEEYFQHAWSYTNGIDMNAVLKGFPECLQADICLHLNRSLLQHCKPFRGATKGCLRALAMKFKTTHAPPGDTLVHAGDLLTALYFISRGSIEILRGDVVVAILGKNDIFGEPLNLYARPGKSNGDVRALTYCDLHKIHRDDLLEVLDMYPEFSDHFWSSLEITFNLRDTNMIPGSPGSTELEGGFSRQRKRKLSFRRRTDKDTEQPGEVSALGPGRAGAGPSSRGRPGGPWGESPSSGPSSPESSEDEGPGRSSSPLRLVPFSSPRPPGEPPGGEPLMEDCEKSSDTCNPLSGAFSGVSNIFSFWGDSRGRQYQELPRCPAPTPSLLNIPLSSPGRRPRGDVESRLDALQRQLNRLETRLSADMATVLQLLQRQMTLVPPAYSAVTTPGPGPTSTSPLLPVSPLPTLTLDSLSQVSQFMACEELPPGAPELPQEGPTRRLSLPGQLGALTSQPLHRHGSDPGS
SMILES,pEC50 (PPARγ),pEC50 (PPARα [1]),pEC50 (PPARδ [2]),CC50 at 3 days [3] [nM],CC50 at 3 days [4] [nM],"Liver fibrosis score (Mean ± SD) [5, 9]","NAFLD activity score (Mean ± SD) [5, 9]","Reduction of NAFLD activity score compared with model group [5, 10]","Reduction of liver fibrosis score compared with model group [5, 10]",pIC50 [6],pEC50 (PPARα [7]),pEC50 (PPARδ [8])
"COc1nc2ccccc2cc1C(=O)CCc1cc(C)c(OC(C)(C)C(=O)O)c(C)c1 [TM42, 2-(4-(3-(2-methoxyquinolin-3-yl)-3-oxopropyl)-2,6-dimethylphenoxy)-2-methylpropanoic acid]",5.71,7.20,6.30,–,–,–,–,–,–,–,–,–
"COc1nc2ccccc2cc1C(=O)/C=C/c1cc(C)c(OC(C)(C)C(=O)O)c(C)c1 [Example 5, (E)-2-(4-(3-(2-methoxyquinolin-3-yl)-3-oxo-1-propen-1-yl)-2,6-dimethylphenoxy)-2-met hylpropionic acid]",6.76,7.64,6.10,7130,13000,0.88 ± 0.35^b,3.00 ± 0.93^b,significant reduction,significant reduction,< 5.00,7.55,6.26
